Assay results: patent US20210401862A1, “METHODS FOR MODULATING CORTICOSTERONE LEVELS IN PSYCHOLOGICALLY STRESSED INDIVIDUALS” (ABBOTT LABORATORIES, priority 2012, published 2021)

Tested on: early stressed maternally deprived mice
Test: Serum stress hormones after acute restraint stress in maternally separated (early stressed) mice fed experimental diets
Assay type: in vivo, C57BL/6 mice
Method: In this Example, the effects of 2-fucosyl-lactose on the production of serum corticosterone in early stressed maternally deprived mice were analyzed. Initially, mice pups were early stressed using a model of maternal separation. Particularly, one day after delivery, C57BL/6 mice pups were sexed and grouped as sham (non-stressed Control group) or maternally separated (MS—stressed group) animals. From day 2 until day 14 after delivery, the MS pups were removed from the dam and kept isolated for a period of 4 hours per day, typically, from 10:00 AM to 2:00 PM, in a thermostatted cup. During the same time period, pups from the sham group were daily handled for a period of five minutes in order to receive the same grade of habituation to a researcher's hands as the MS pups. Each dam had litters of 4 males and 2 females. Females were allowed to stay with the mother, while males were maternally deprived in order to avoid stressing the dam by removing all of the pups. Additionally, pups from the MS group were prematurely weaned, and thus permanently removed from the dam, at postnatal day 17, whereas sham pups were not weaned until postnatal day 21. At postnatal day 22, all pups in the MS group were pooled and four experimental groups were made before starting nutritional intervention. [table] At the nutritional intervention stage, mice were fed experimental diets for a period of eight weeks. After eight weeks, blood samples were taken from facial veins of the mice in order to measure basal stress hormones (i.e., corticosterone, adrenocorticotropic hormone (ACTH), and melatonin). Stress hormones were measured using luminex technology using a multiplex commercial kit (commercially available from Millipore Corporation, Billerica, Mass.) Seven days later, mice were submitted to an acute stress by restraint protocol. Particularly, mice were placed into a multi-drilled 50-ml centrifuge tube for 20 minutes. After this time, mice were extracted from the tube, and again, blood samples were taken in order to measure serum stress hormones immediately after the acute stressful event (i.e., restraint).

[1] = MS-stressed mice, supplemented diet about 7 mg/mouse/day, post-restraint, stated for any of the experimental groups

2-fucosyl-lactose [2-fucosyllactose]
serum corticosterone levels in response to restraint, compared with MS mice on the control diet (AIN93G diet with about 7 mg/mouse/day for eight weeks, blood taken immediately after 20 minutes restraint, Group C vs MS control Group D): significantly lower | serum corticosterone levels in response to restraint, compared with normal sham mice (MS-stressed mice, AIN93G diet with about 7 mg/mouse/day for eight weeks, blood taken immediately after 20 minutes restraint, Group C vs sham Group E): equal that of the normal sham mice | ACTH serum levels post-restraint [1]: no effects | melatonin serum levels post-restraint [1]: no effects
